Reference: the supplement of paper PMC8617591

Legend:
[1] = tested on: Mycobacterium tuberculosis Erdman (autoluminescent); assay: GRinf, maximum normalised growth rate inhibition (unitless (-1 to 1)); higher = less effect (negative = killing)
Experimental: (§1)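 DiaMOND equipotent two-drug combination dose responses against autoluminescent M. tuberculosis Erdman in 8 in vitro models. Read-out is OD600, or luminescence for the intracellular and dormancy models, normalised to untreated wells. Hill-fit Einf, AUC25 and GRinf are potency metrics; FIC50 and FIC90 are Loewe-additivity fractional inhibitory concentrations, given as log2 (negative = synergy). Replicates are averaged.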

[2] = tested on: Mycobacterium tuberculosis Erdman (autoluminescent); assay: Einf, fitted maximum growth inhibition of combination (fraction); higher = stronger maximal inhibition
Experimental: as §1

[3] = tested on: Mycobacterium tuberculosis Erdman (autoluminescent); assay: FIC50 (Loewe) at 50% inhibition (log2); higher = more antagonistic
Experimental: as §1

[4] = tested on: Mycobacterium tuberculosis Erdman (autoluminescent); assay: FIC90 (Loewe) at 90% inhibition (log2); higher = more antagonistic
Experimental: as §1

[5] = tested on: Mycobacterium tuberculosis Erdman (autoluminescent); assay: AUC25, normalised area under dose response up to IC25 (fraction (0-1)); higher = more potent at low dose
Experimental: as §1

CC(=O)NC[C@H]1CN(c2ccc(N3CCOCC3)c(F)c2)C(=O)O1 [linezolid] + O=[N+]([O-])c1cn2c(n1)OC[C@@H](OCc1ccc(OC(F)(F)F)cc1)C2 [pretomanid]
Conditions | AUC25, [5] | Einf, [2] | FIC50, [3] | FIC90, [4] | GRinf, [1]
in vitro model: acidic pH 5.7, time point: constant (~7 days, model-specific) | 0.116 | 0.89 | 0.583 | – | -0.559
in vitro model: acidic pH 5.7, time point: terminal (~4-5 doublings, model-specific) | 0.0893 | 0.984 | 0.324 | 0.246 | -0.355
in vitro model: intracellular J774, time point: constant = terminal | – | 0.993 | – | 1.06 | -0.54

Conditions | AUC25, [5] | Einf, [2] | FIC50, [3] | FIC90, [4] | GRinf, [1]
in vitro model: butyrate, time point: constant (~7 days, model-specific) | 0.0973 | 0.907 | 0.595 | 1.47 | 0.0334
in vitro model: butyrate, time point: terminal (~4-5 doublings, model-specific) | 0.0643 | 0.947 | 0.4 | 0.493 | 0.0161
in vitro model: cholesterol 0.05 mM, time point: constant (~7 days, model-specific) | 0.13 | 0.708 | -0.367 | – | -0.103
in vitro model: cholesterol 0.05 mM, time point: terminal (~4-5 doublings, model-specific) | 0.142 | 0.942 | -0.293 | 0.00527 | -0.182
in vitro model: cholesterol-high 0.2 mM, time point: constant (~7 days, model-specific) | 0.0977 | 0.869 | -0.451 | -0.477 | -0.114
in vitro model: cholesterol-high 0.2 mM, time point: terminal (~4-5 doublings, model-specific) | 0.111 | 0.992 | -0.228 | 0.311 | -0.548
in vitro model: dormancy (butyrate + nitrate, low O2), time point: constant (~7 days, model-specific) | 0.0359 | 0.925 | 0.74 | 0.509 | 0.0858
in vitro model: dormancy (butyrate + nitrate, low O2), time point: terminal (~4-5 doublings, model-specific) | 0.0385 | 0.991 | 0.255 | 0.232 | -0.248
in vitro model: standard 7H9 glycerol, time point: constant = terminal | 0.0819 | 0.971 | 0.34 | 0.309 | -0.171
in vitro model: valerate, time point: constant (~7 days, model-specific) | 0.102 | 0.802 | 1.02 | – | 0.0728
in vitro model: valerate, time point: terminal (~4-5 doublings, model-specific) | 0.123 | 0.951 | -0.689 | 0.943 | 0.0215

COc1c(N2C[C@@H]3CCCN[C@@H]3C2)c(F)cc2c(=O)c(C(=O)O)cn(C3CC3)c12 [moxifloxacin] + CO[C@H]1/C=C/O[C@@]2(C)Oc3c(C)c(O)c4c(O)c(c(/C=N/N5CCN(C)CC5)c(O)c4c3C2=O)NC(=O)/C(C)=C\C=C\[C@H](C)[C@H](O)[C@@H](C)[C@@H](O)[C@@H](C)[C@H](OC(C)=O)[C@@H]1C [rifampicin]
Conditions | AUC25, [5] | Einf, [2] | FIC50, [3] | FIC90, [4] | GRinf, [1]
in vitro model: acidic pH 5.7, time point: constant (~7 days, model-specific) | 0.0689 | 0.781 | 0.367 | – | 0.0866
in vitro model: acidic pH 5.7, time point: terminal (~4-5 doublings, model-specific) | 0.0663 | 0.968 | 0.382 | 0.156 | -0.0508
in vitro model: intracellular J774, time point: constant = terminal | – | 0.985 | – | 0.644 | -0.307

Conditions | AUC25, [5] | Einf, [2] | FIC50, [3] | FIC90, [4] | GRinf, [1]
in vitro model: butyrate, time point: constant (~7 days, model-specific) | 0.107 | 0.886 | 0.528 | 0.508 | 0.0889
in vitro model: butyrate, time point: terminal (~4-5 doublings, model-specific) | 0.0896 | 0.956 | 0.435 | 0.598 | 0.0327
in vitro model: cholesterol 0.05 mM, time point: constant (~7 days, model-specific) | 0.117 | 0.62 | 0.744 | – | 0.145
in vitro model: cholesterol 0.05 mM, time point: terminal (~4-5 doublings, model-specific) | 0.091 | 0.885 | 0.35 | -0.321 | -0.0751
in vitro model: cholesterol-high 0.2 mM, time point: constant (~7 days, model-specific) | 0.0744 | 0.8 | 0.432 | – | -0.0793
in vitro model: cholesterol-high 0.2 mM, time point: terminal (~4-5 doublings, model-specific) | 0.066 | 0.985 | 0.68 | 0.43 | -0.57
in vitro model: dormancy (butyrate + nitrate, low O2), time point: constant (~7 days, model-specific) | 0.071 | 0.923 | 0.513 | -0.28 | 0.0564
in vitro model: dormancy (butyrate + nitrate, low O2), time point: terminal (~4-5 doublings, model-specific) | 0.059 | 0.98 | 0.589 | 0.752 | -0.197
in vitro model: standard 7H9 glycerol, time point: constant = terminal | 0.0477 | 0.828 | 0.486 | – | 0.308
in vitro model: valerate, time point: constant (~7 days, model-specific) | 0.04 | 0.842 | 0.724 | – | 0.085
in vitro model: valerate, time point: terminal (~4-5 doublings, model-specific) | 0.0278 | 0.925 | 0.717 | 0.437 | 0.0646

COc1nc2ccc(Br)cc2cc1[C@@H](c1ccccc1)[C@@](O)(CCN(C)C)c1cccc2ccccc12 [bedaquiline] + NC(=O)c1cnccn1 [pyrazinamide]
Conditions | AUC25, [5] | Einf, [2] | FIC50, [3] | FIC90, [4] | GRinf, [1]
in vitro model: acidic pH 5.7, time point: constant (~7 days, model-specific) | 0.0806 | 0.84 | -0.282 | -1.27 | -0.398
in vitro model: acidic pH 5.7, time point: terminal (~4-5 doublings, model-specific) | 0.0795 | 0.985 | -0.0485 | -0.613 | -0.351
in vitro model: intracellular J774, time point: constant = terminal | – | 0.99 | – | 0.411 | -0.387

Conditions | AUC25, [5] | Einf, [2] | FIC50, [3] | FIC90, [4] | GRinf, [1]
in vitro model: butyrate, time point: constant (~7 days, model-specific) | 0.124 | 0.969 | 0.033 | 0.896 | -0.595
in vitro model: butyrate, time point: terminal (~4-5 doublings, model-specific) | 0.106 | 0.991 | 0.262 | 1.12 | -0.941
in vitro model: cholesterol 0.05 mM, time point: constant (~7 days, model-specific) | 0.101 | 0.746 | – | – | -0.259
in vitro model: cholesterol 0.05 mM, time point: terminal (~4-5 doublings, model-specific) | 0.0985 | 0.949 | 0.282 | – | -0.43
in vitro model: cholesterol-high 0.2 mM, time point: constant (~7 days, model-specific) | 0.0781 | 0.978 | 0.168 | – | -0.543
in vitro model: cholesterol-high 0.2 mM, time point: terminal (~4-5 doublings, model-specific) | 0.0705 | 1 | 0.224 | 0.208 | -0.654
in vitro model: dormancy (butyrate + nitrate, low O2), time point: constant (~7 days, model-specific) | 0.0588 | 0.919 | -1.06 | -1.22 | 0.131
in vitro model: dormancy (butyrate + nitrate, low O2), time point: terminal (~4-5 doublings, model-specific) | 0.0543 | 0.98 | -0.504 | -0.991 | -0.121
in vitro model: standard 7H9 glycerol, time point: constant = terminal | 0.072 | 0.943 | -0.45 | – | -0.0583
in vitro model: valerate, time point: constant (~7 days, model-specific) | 0.0845 | 0.896 | 0.247 | – | -0.0105
in vitro model: valerate, time point: terminal (~4-5 doublings, model-specific) | 0.057 | 0.943 | 0.318 | 0.391 | 0.0136
